{"source": "paper PMC10121968", "about": "“Fosgonimeton, a Novel Positive Modulator of the HGF/MET System, Promotes Neurotrophic and Procognitive Effects in Models of Dementia” (Neurotherapeutics, 2022)", "key": {"[1]": {"test": "Fosgonimeton PK in mice", "type": "in vivo, mouse", "settings": "0.75 mg/kg SC, first tested time point", "method": "Three male BALBc mice were treated with 0.75 mg/kg fosgonimeton in saline with 0.1% glycine via SC injection. Blood was serially collected at 0.25, 0.5, 1, 2, and 4 h after dosing. Plasma was obtained by centrifugation with 2% disodium EDTA as an anticoagulant. Plasma samples were precipitated with acetonitrile containing internal standard, and the concentration of fosgonimeton and fosgo-AM was determined by LC/MS/MS."}, "[2]": {"test": "Fosgonimeton solubility (filtration/HPLC in PBS)", "type": "physicochemical", "settings": "osmolarity-corrected PBS", "method": "Fosgonimeton solubility studies were contracted to GVK Biosciences, Hyderabad, India. Stocks of fosgonimeton were prepared in duplicate at several concentrations in osmolarity-corrected PBS and were vortexed to dissolve into solution. The solutions were filtered through a 0.45-µm filter followed by a 0.22-µm filter to remove insoluble particulates. Pre- and postfiltration aliquots were collected, and their concentration was determined via high-performance liquid chromatography."}, "[3]": {"test": "Fosgonimeton CNS distribution in rats", "type": "in vivo, rat", "settings": "12 mg/kg fosgonimeton SC, all brain regions", "method": "Three male Sprague Dawley rats per time point were given 12 mg/kg fosgonimeton via SC injection. At 0.16, 0.5, and 1 h after dosing, animals were humanely killed and perfused with chilled saline. Brains were collected and dissected into the following brain regions: whole brain, striatum, olfactory bulb, hippocampus, cerebellum, cerebral cortex, and brainstem. Brain regions were homogenized and the exposures of fosgonimeton and fosgo-AM were determined by LC/MS/MS."}, "[4]": {"system": "LPS-induced neuroinflammatory mouse model", "test": "LPS-induced cognitive impairment, T-maze spontaneous alternation", "type": "in vivo", "settings": "14 days", "method": "All animal manipulations were conducted in accordance with the European Directive 2010/63/UE published in the French decree 2013–118 of February 1, 2013, and approved by an independent government-accredited ethics committee (CEEA 35, NEUROFIT, France). Animals for the study consisted of 90 four- to five-week-old CD-1 mice (Janvier, Le Genest St Isle, France). Mice were group-housed and maintained in a room with controlled temperature (21–22 °C) and reversed 12/12 light/dark cycle. The animals had access to food and water ad libitum.\nMice were sorted into the following experimental groups: saline + vehicle (control), LPS + vehicle (LPS), LPS + 0.1 mg/kg memantine, and LPS + fosgonimeton at 0.125, 0.25, 0.5, 1, or 1.25 mg/kg (LPS + fosgo). On day 0 of the study, all groups received either a single intraperitoneal injection of saline or LPS (0.25 mg/kg). During days 1–14, animals received memantine or fosgonimeton treatment once daily. On day 14, 60 min after the last dosing with test compounds or vehicle, mice were assessed for performance on the T-maze spontaneous alternation task.\nThe T-maze apparatus was made of gray Plexiglas with a main stem (55 cm × 10 cm × 20 cm) and 2 arms (30 cm × 10 cm × 20 cm) positioned at a 90° angle relative to the main stem. A start box (15 cm × 10 cm) was separated from the main stem by a guillotine door. Horizontal doors were also provided to close specific arms during the “forced-choice” alternation task.\nThe experimental protocol consisted of a single session, which started with 1 forced-choice trial, followed by 14 “free-choice” trials. In the forced-choice trial, the animal was confined for 5 s in the start arm and was then released while either the left or the right goal arm was blocked by a horizontal door. Animals were allowed to explore the maze, eventually entering the open goal arm and afterward returning to the start position. […] The animal was considered to have entered an arm if it placed all 4 paws in the arm. The session was terminated and the animal was removed from the maze after 14 free-choice trials were performed or 10 min elapsed, whichever occurred first. The apparatus was cleaned between each animal run using 70% ethanol. During the trials, animal handling and the visibility of the operator were controlled to minimize interference during testing.\nThe percentage of alternations over the 14 free-choice trials was determined for each mouse and was used as an index of working memory performance. This percentage was defined as entry into a different goal arm of the T maze over successive trials (e.g., left–right–left–right) and was calculated using the formula: %Alternations=Number of Alternations/14×100\nAdditionally, percentage of recovery was calculated by normalizing the control group to 100% and the LPS group to 0% and calculating the respective relative response for each individual animal, as follows: %Recovery=(Individual%alternation-meanLPS%alternation)/(Meancontrol%alternation-meanLPS%alternation)\nData were assessed for normality (Shapiro–Wilk) and homoscedasticity (Brown-Forsythe). One-way ANOVA was performed on the data for spontaneous alternations. Dunnett multiple comparison test was used for post hoc pairwise comparisons with the LPS group. The Kruskal–Wallis test was used for percentage of recovery with Dunn’s multiple comparison post hoc test. A value of p < 0.05 was considered to represent a statistically significant difference."}, "[5]": {"test": "Plasma PK in rats after SC injection", "type": "in vivo, rat", "settings": "SC", "method": "Four male rats were treated with 10 mg/kg fosgo-AM in DMSO via SC injection. Blood was serially collected at 0.08, 0.25, 0.5, 1, 2, and 4 h after dosing. Plasma was obtained by centrifugation with 2% disodium ethylenediaminetetraacetic acid (EDTA) as an anticoagulant. Plasma samples were precipitated with acetonitrile containing internal standard, and the concentration of fosgo-AM was determined by LC/MS/MS.\nThis study was conducted as described in the “Fosgo-AM PK in Rats” section with the following changes: animals were given 12 mg/kg fosgonimeton in saline with 0.1% glycine via SC injection, and a dose-linear correction was applied to normalize the dose to 10 mg/kg for comparison with the fosgo-AM study. Sample concentrations of both fosgonimeton and fosgo-AM were determined."}, "[6]": {"system": "primary rat hippocampal neurons", "test": "Neurite outgrowth assay (beta-III tubulin staining)", "type": "cell-based", "settings": "HGF alone 5 ng/mL, 4 days, vs vehicle", "method": "On day 0, rat hippocampal neurons from newborn pups were isolated and cultured in brain neuronal culture medium (neurobasal medium supplemented with 5% FBS, 2% B-27 supplement, and 0.003% gentamycin) at 37 °C under 5% CO2. At 1 day in vitro (DIV1), cells were transferred to a poly-D-lysine–coated 24-well plate at approximately 10,000 cells/well. Cells were then grown in […] of serum-free medium and treated with the following: 0.1% dimethyl sulfoxide (DMSO; vehicle), 10 nM dihydrotestosterone (positive control), 10 nM fosgo-AM, 1 nM fosgo-AM, 5 ng/ml HGF, or 5 ng/ml HGF + 1 nM fosgo-AM. All treatments contained a final concentration of 0.1% DMSO. For the neurite outgrowth assay, treatment media were refreshed on DIV3, and cells were processed for analysis on DIV4. For the synaptogenesis assay, treatment media were refreshed on DIV3 and DIV6, and cells were processed for analysis on DIV8. Processing for both the neurite outgrowth and the synaptogenesis assays was performed as follows: media were removed, and cells were fixed with 100% methanol for 20 min at RT before methanol was aspirated and each well was washed twice with Dulbecco’s phosphate-buffered saline (DPBS). Cells were permeabilized using 0.02% […] (ThermoFisher, Waltham, Massachusetts) in DPBS for 2 min at RT without shaking, and plates were blocked with 5% bovine serum albumin (BSA) in DPBS for 1 h at RT. Plates were then incubated overnight at 4 °C with gentle shaking with use of beta-III tubulin antibody (ab201740; Abcam, Boston, Massachusetts) to assess neurite outgrowth or with use of 1:500 rabbit anti–synaptobrevin-II antibody (Synaptic Systems, cat# 104 202, Göttingen, Germany) to assess synaptogenesis. After overnight incubation, plates were washed 3 times with DPBS and incubated for 1 h at RT with use of anti–rabbit immunoglobulin G–secondary antibody conjugated to Alexa Fluor 488 (Life Technologies, Carlsbad, California, 1:500). After 5 DPBS washes, coverslips were mounted on slides using fluorescent mounting medium (Golden Bridge International Labs, Bothell, Washington, cat# E19-s). Imaging was performed using the BX43 Olympus microscope driven by the standard “CellSens” software by Olympus. […] Ten images of single cells from a total of 2 assays were analyzed using NeuroJ plug-in for ImageJ to assess neurite outgrowth, as neurite length and the number of branches per neuron were counted for each cell. For the synaptogenesis assay, synaptic count (number of synapses) and synaptic strength (relative abundance of presynaptic vesicles per synapse as measured by synaptobrevin-II fluorescence intensity) were quantified for each cell. Data were assessed for normality (Shapiro–Wilk) and homoscedasticity (Brown-Forsythe). […]"}, "[7]": {"system": "MDCK cells", "test": "MDCK cell scatter behavior assay", "type": "cell-based, canine", "settings": "HGF 40 ng/mL, 24 h", "method": "Madin-Darby canine kidney (MDCK, ATCC CCL-34) cells were grown at 37 °C, 5% CO2 in Eagle’s Minimum Essential Medium (EMEM) + 10% FBS in T-75 flasks until 80% confluent. Cells were then plated at 1400 cells/well in black-walled, clear-bottom 96-well plates and grown at 37 °C under 5% CO2 for 24 h. Growth media were replaced by serum-free media for 2 h before treatment. Treatments containing HGF and fosgo-AM were made in serum-free media and applied in quintuplicates for 24 h at 37 °C under 5% CO2. Cells were then fixed in chilled 100% EtOH at 4 °C for 20 min and then stained with wheat germ agglutinin conjugated to CF488 (WGA488, Biotium, 29,022–1, Fremont, California) at […] in phosphate-buffered saline (PBS) for 30 min at RT to visualize whole-cell surfaces. Cultures were then imaged with an iCys instrument (iCyte, Thor Labs, Newton, New Jersey) and analyzed with the ImageJ (National Institutes of Health) particle count feature. Scattering behavior was quantified by normalizing particle counts against total stained area. […] Data were assessed for normality (Shapiro–Wilk) and homoscedasticity (Brown-Forsythe). The statistical difference from HGF alone was determined by one-way ANOVA with Dunnett’s multiple comparison post-test with an alpha value of 0.05 (Prism, GraphPad)."}, "[8]": {"system": "ERK (Thr202/Tyr204)", "test": "Phospho-ERK HTRF assay in HEK293 cells", "type": "cell-based, human", "settings": "HEK293, HGF 10 ng/mL, vs no HGF treatment", "text": "To determine phosphoactivation status of the intracellular signaling molecules ERK (Thr202/Tyr204) or AKT (Ser473), we used homogenous time-resolved fluorescence (HTRF) kits to assess phosphorylation status based on the energy transfer between donor and acceptor phospho-ERK (pERK) or phospho-AKT (pAKT) antibodies. HTRF kit processing for pERK (Phospho-ERK [Thr202/Tyr204] cellular Advanced kit, #64AERPEG, Cisbio, Codolet, France) and pAKT (Phospho-AKT [Ser473] cellular kit, #64AKSPEG, Cisbio, Codolet, France) were carried out per manufacturer instructions. In brief, HEK293 cells were grown at 37 °C, 5% CO2 in DMEM + 10% FBS until approximately 80% confluent. Cells were seeded in polystyrene-treated 96-well cell culture plates at approximately 50,000 cells/well and cultured overnight in 50 µL serum-free growth media. […] Fluorescence emission at 2 different wavelengths (665 nm and 620 nm) were measured on an Envision plate reader (PerkinElmer, Waltham, Massachusetts), and the HTRF ratio of the acceptor and donor emission signals for each well was calculated as follows: HTRF ratio = (665 nm/620 nm) × 10,000. […] Data were assessed for normality (Shapiro–Wilk) and homoscedasticity (Brown-Forsythe). Statistical significance was determined by one-way analysis of variance (ANOVA) with Tukey’s multiple comparison post-test. […]"}}, "note": "Non-standard residues stand in square brackets, D forms with d. Residues, ends and D or L forms follow the SMILES beside them. *: point of attachment. pY = N[C@@H](Cc1ccc(OP(=O)(O)O)cc1)C(=O)O; Hexanoyl = CCCCCC(=O)*; Ahx = NCCCCCC(=O)O"}
{"compound": "CCCCCC(=O)N[C@@H](Cc1ccc(OP(=O)(O)O)cc1)C(=O)N[C@H](C(=O)NCCCCCC(N)=O)[C@@H](C)CC", "note": "[fosgonimeton] (Hexanoyl-[pY]-Ile-[Ahx]-NH2)", "values": [{"measurement": "time of appearance of active compound fosgo-AM after fosgonimeton", "setting": "[1]", "result": "≤ 15", "unit": "min"}, {"measurement": "solubility in aqueous solutions", "setting": "[2]", "result": "greater than 70 mg/mL"}, {"measurement": "detection in brain regions", "setting": "[3]", "result": "undetectable"}, {"measurement": "percentage of recovery (spontaneous alternations)", "setting": "[4]; 0.25 mg/kg SC once daily", "result": 61.76, "unit": "%"}, {"measurement": "percentage of recovery (spontaneous alternations)", "setting": "[4]; 0.5 mg/kg SC once daily", "result": 79.40, "unit": "%"}, {"measurement": "percentage of recovery (spontaneous alternations)", "setting": "[4]; 1 mg/kg SC once daily", "result": 64.70, "unit": "%"}, {"measurement": "percentage of recovery (spontaneous alternations)", "setting": "[4]; 1.25 mg/kg SC once daily", "result": 64.70, "unit": "%"}, {"measurement": "percentage of spontaneous alternations vs LPS group", "setting": "[4]; 0.25, 0.5, 1 and 1.25 mg/kg SC once daily", "result": "significantly ameliorated these deficits"}, {"measurement": "fold higher fosgo-AM Cmax vs equivalent direct dose of fosgo-AM", "setting": "[5]", "result": "~4", "unit": "fold"}, {"measurement": "systemic exposure of fosgo-AM vs equivalent direct dose of fosgo-AM", "setting": "[5]", "result": "higher systemic exposure"}, {"measurement": "time of appearance of active compound fosgo-AM after fosgonimeton", "setting": "[5]; first tested time point", "result": "≤ 5", "unit": "min"}]}
{"compound": "CC12CC3CC(C)(C1)CC(N)(C3)C2", "note": "[memantine, reference compound]", "values": [{"measurement": "percentage of spontaneous alternations vs LPS group", "setting": "[4]; 0.1 mg/kg I.P. once daily", "result": "significantly prevented LPS-induced cognitive deficits"}, {"measurement": "percentage of recovery (spontaneous alternations)", "setting": "[4]; positive control, 0.1 mg/kg I.P. once daily", "result": 76.40, "unit": "%"}]}
{"compound": "HGF: Recombinant HGF protein (R&D Systems), ligand of the MET receptor", "values": [{"measurement": "neurite length per cell", "setting": "[6]", "result": "no significant differences compared with vehicle"}, {"measurement": "cell scattering behavior", "setting": "[7]", "result": "significantly increased cell scattering behavior"}, {"measurement": "pERK levels", "setting": "[8]", "result": "significantly increased pERK versus no HGF treatment"}]}
